Measurements reported in patent EP3184514A1, “AUTOPHAGY INHIBITORS” (Deutsches Krebsforschungszentrum, priority 2015, dated 2017).
Where a name gives a salt, the structure may show the parent alone.

Assays:
LC3 proteins = assay: ITC and NMR titrations; format: binding; details: by ITC and NMR
Description: All ITC experiments were performed at 25 °C using a VP-ITC microcalorimeter (MicroCal Inc, MA, USA) and analyzed with the ITC-Origin 7.0 software (MicroCal Inc.) based on a "one-site binding" reaction. […] Dilution heat of both compounds was measured upon titration of the stocks into buffer. All experiments were performed on a Bruker Avance spectrometer operating at a proton frequency of 500, 600 and 700 MHz at 298 K.

LC3B [1] = assay: cellular autophagy screening: LC3B spots by immunocytochemistry and automated confocal imaging; format: cell-based; details: relative to negative DMSO control, 100 µM, 1 hour; for LC3B inhibition cell based Fold increase of LC3B spots [DMSO control 1.0]: Table 1-a, n.e. means no effect
Description: For screening purposes, cells were seeded in 384 well plates and left over night for attachment.
Afterwards, medium was removed and 4 % (w/v) paraformaldehyde (PFA) in PBS buffer was added to the cells for 20 minutes, incubated at room temperature. Cells were permeabilized with 0.1 % (v/v) Triton X-100 for 10 min at room temperature and washed with PBS. Cells were blocked with 3 % (w/v) bovine serum albumin (BSA) in PBS for 45 minutes at 37 °C and then incubated with anti-LC3B (PM036, MBL) or anti-p62 (PM045 or M162-3, MBL) primary antibody diluted in 0.3 % BSA (1:2000 or 1:500) for 1.5-2 hours at 37 °C. Cells were washed three times with PBS.
384 well plates were then analyzed with an automated confocal microscope Opera (PerkinElmer) enabling high throughput high content screening image analysis. […] A water immersion 60x objective was used for optical slicing and stacking (5x0.5 µm stacks). […] Signal was detected with a fast gated CCD camera. Acapella software (PerkinElmer) is an algorithm based high content imaging and analysis software used in multi-parametric multiplex assays. Acapella was used to follow cell viability (i.e. number of cells) and the number of LC3B and p62 spots per cell.
The LC3B protein is a ubiquitin-like protein that can be conjugated to phosphatidylethanolamine (PE) in the membrane of the incipient autophagosome. The nonlipidated and lipidated forms are usually referred to as LC3B-I and LC3B-II, respectively. […] Autophagic flux is often inferred on the basis of LC3B-II turnover, measured by western blot (WB) or immunofluorescence (IF) in the presence and absence of lysosomal degradation. […] Lysosomal degradation can be prevented e.g. through the use of compounds that neutralize the lysosomal pH such as Bafilomycin A1 (BafA1) or chloroquine (CQ). […] An additive or supra-additive effect in LC3B-II levels (WB) and LC3B-positive punctae numbers (IF) may indicate that the treatment enhances autophagic flux. […] This assay can be complemented by simultaneous monitoring of autophagosomal substrates or autophagosomal substrate receptors (e.g. SQSTM1/p62) by WB and/or IF. For example, an increase in LC3B-II levels in combination with the accumulation of SQSTM1/p62 is indicative of a blockage of the autophagy pathway at terminal stages.

LC3B [2] = biological target: T1, LC3B (Homo sapiens, UniProt Q9GZQ8); assay: AlphaScreen interaction displacement assay (GST-LC3B / biotin-LIRtide); format: binding; details: Table 1-a; n.e. means no effect
T1 construct: made in house; host or cells: E. coli Rosetta (DE3)
Description: The AlphaScreen assay contained 50 mM Tris (pH 7.5), 100 mM NaCl, 0.01% Tween 20, 2 mM DTT, 1 % DMSO and 2-30 nM GST-LC3B and biotin-LIRtide 2-30 nM. The concentrations of GST-LC3B and biotin-LIRtide were experimentally chosen from a cross-titration assay exploring the different combinations of for each batch of protein used and when a new batch of buffer was prepared.
A gene encoding for human LC3B protein inserted in a pET-GST expression vector was used as a template. Rosetta (DE3) competent cells were transformed by started procedure, plated on an LB agar plate with ampicillin (100 µg/ml) and left overnight at 37 °C. Overnight culture was prepared from a single colony and shaken at 180 rpm at 37 °C. LB medium with ampicillin was inoculated with overnight culture (10 ml per 500 ml of LB) and shaken until the optical density at 600 nm (OD600) reached a value of approximately 0.6. Protein expression was then induced with 400 µM IPTG and further incubated for 4 hours. Bacterial culture was centrifuged for 20 minutes at 6000 rpm at 4 °C. The pellet was then resuspended in lysis buffer (20 mM TRIS-HCl pH 7.5, 10 mM EDTA, 5 mM EGTA, 150 mM NaCl, 0.5 % NP40, 1 % Triton X-100, 1 mM DTT, 2 mg/ml lysozyme, 0.05 U/µl benzonase, 1x protease inhibitor cocktail). Lysate was then stored at -20 °C over night. Sample was thawed in water bath and sonicated on ice (40 % amplitude, 30 seconds pulse/30 seconds pause cycle). Lysate was centrifuged at 10000xg at 4 °C for half an hour. Meanwhile, 500 µl of glutathione sepharose beads was equilibrated with lysis buffer and then added to the supernatant. The mixture was incubated and rotated at room temperature for 2 hours. After binding of the protein to the beads, beads were spun down at 500xg at 4 °C for 5 minutes. Pellet was then washed with cold wash buffer at least four times (20 mM Tris-HCl pH 7.5, 10 mM EDTA, 5 mM EGTA, 150 mM NaCl, 1 mM DTT), dried and stored in 5 % glycerol at 4 °C.

U2OS cells = assay: autophagic flux by confocal microscopy and western blotting; format: cell-based, Human; details: 100 nM, alone
Description: […]. After harvesting, cells were lysed with radioimmunoprecipitation assay (RIPA) buffer (50 mM Tris-HCl, pH 7.5, 150 mM NaCl, 0.5 % deoxycholate, 1 % Triton X-100, 0.1 % SDS and 1x protease inhibitors) and left on ice for 30 minutes. Cell lysates were clarified by centrifugation at 10000xg for 20 min at 4 °C. Protein concentrations of the supernatants were determined by BCA assay and the absorbance was measured at 562 nm. SDS-PAGE and WB was performed.
For screening purposes, cells were seeded in 384 well plates and left over night for attachment. […]. For controls, cells were treated with 250 nM torin and/or 100 nM BafA1 for 2 hours.
Afterwards, medium was removed and 4 % (w/v) paraformaldehyde (PFA) in PBS buffer was added to the cells for 20 minutes, incubated at room temperature. Cells were permeabilized with 0.1 % (v/v) Triton X-100 for 10 min at room temperature and washed with PBS. Cells were blocked with 3 % (w/v) bovine serum albumin (BSA) in PBS for 45 minutes at 37 °C and then incubated with anti-LC3B (PM036, MBL) or anti-p62 (PM045 or M162-3, MBL) primary antibody diluted in 0.3 % BSA (1:2000 or 1:500) for 1.5-2 hours at 37 °C. Cells were washed three times with PBS. Secondary Alexa Fluor 488 - labeled antibodies (A-11008, Invitrogen) were diluted in 0.3 % BSA (1:2500) and incubated on cells for 15 minutes at 37 °C. Cells were washed once with PBS, incubated with DRAQ5 (#4084, Cell Signaling) diluted in PBS (1:5000) for 10 minutes and washed three times with PBS.
384 well plates were then analyzed with an automated confocal microscope Opera (PerkinElmer) enabling high throughput high content screening image analysis. […] Signal was detected with a fast gated CCD camera. […]
The LC3B protein is a ubiquitin-like protein that can be conjugated to phosphatidylethanolamine (PE) in the membrane of the incipient autophagosome. […] Autophagic flux is often inferred on the basis of LC3B-II turnover, measured by western blot (WB) or immunofluorescence (IF) in the presence and absence of lysosomal degradation. […]

Kd (LC3 proteins) [µM] | LC3B inhibition cell free IC50 (LC3B [2]) | Compound | LC3B inhibition cell based Fold increase of LC3B spots [DMSO control 1.0] (LC3B [1]) | LC3B Inhibition cell based Fold increase of LC3B spots (LC3B [1]; Table 2a) | amount of LC3B-positive spots and lipidated LC3B (LC3B-II) (U2OS cells)
5 to 50 | – | CO[C@@H]1[C@@H](OC(N)=O)[C@@H](O)[C@H](Oc2ccc3c(O)c(NC(=O)c4ccc(O)c(CC=C(C)C)c4)c(=O)oc3c2C)OC1(C)C [Compound 2-0, Novobiocin Sodium Salt] | – | – | –
– | n.e | Fc1ccc(CN2CN=C(SCc3ccc(Cl)cc3)NC2)cc1 [Compound I-15, 6-((4-chlorobenzyl)thio)-3-(4-fluorobenzyl)-1,2,3,4-tetrahydro-1,3,5-triazine] | 5.9 | – | –
– | n.e | Fc1ccc(CN2CN=C(SCc3cccc(Oc4ccccc4)c3)NC2)cc1 [Compound I-16, 3-(4-fluorobenzyl)-6-((3-phenoxybenzyl)thio)-1,2,3,4-tetrahydro-1,3,5-triazine] | n.e. | – | –
– | – | CO/C1=C\C(C)=C\[C@@H](C)[C@@H](O)[C@@H](C)C/C(C)=C/C=C/[C@H](OC)[C@@H]([C@@H](C)[C@@H](O)[C@H](C)[C@@]2(O)C[C@@H](O)[C@H](C)[C@@H](C(C)C)O2)OC1=O [bafilomycin A1, reference compound] | 5.5 | 5.5 | increased

Compound | Kd (LC3 proteins) [µM] | LC3B inhibition cell free IC50 (LC3B [2]) | LC3B inhibition cell based Fold increase of LC3B spots [DMSO control 1.0] (LC3B [1]) | LC3B Inhibition cell based Fold increase of LC3B spots (LC3B [1]; Table 2a) | amount of LC3B-positive spots and lipidated LC3B (LC3B-II) (U2OS cells)
Fc1ccc(CN2CN=C(SCc3ccc(Br)cc3)NC2)cc1F [Compound I-17, 6-((4-bromobenzyl)thio)-3-(3,4-difluorobenzyl)-1,2,3,4-tetrahydro-1,3,5-triazine] | – | n.e | 4.2 | – | –
